Source: patent US20190365843A1, “Antimicrobial Activity of Bioactive Compounds and Their Derivatives” (priority 2018, published 2019)

What was measured:
[1] = test system: ETEC; experiment: Agar diffusion growth inhibition zone, ETEC; assay type: cell-based, Enterotoxigenic E. coli; settings: for inhibition of growth / zone of inhibition: ETEC; for zone of inhibition: 6 mm = no activity
Protocol: (§7) Agar well diffusion method is widely used to evaluate the antimicrobial activity of plants or other synthetic products. The suspension (microbial inoculum) was used to inoculate into Muller Hinton Agar Petri plates by lawn culture. Well (diameter 6 mm) were punched in the agar by sterile borer and filled with 50 μl of dissolved extracts. Plates were incubated in incubator at 37° C. for 24 hours and measured the growth inhibition zone diameters in mm compared with that of control (DMSO) showing no growth. The antimicrobial agent diffuses in the agar medium and inhibits the growth of the microbial strain tested (Valgas et al., (2016) Methods for in vitro evaluating antimicrobial activity: A review. Journal of Pharmaceutical Analysis. 6(2):71-9).
(§8) Similar to the procedure used in Agar well diffusion method, the suspension (microbial inoculum) was used to inoculate into Muller Hinton Agar Petri plates by lawn culture. Then, filter paper discs (about 6 mm in diameter), containing the test compound at a desired concentration, were placed on the agar surface. The Petri dishes were incubated under suitable incubation conditions. Generally, antimicrobial agent diffuses into the agar and inhibits germination and growth of the test microorganism and then the diameters of inhibition growth zones are measured (Valgas et al., (2007) Screening methods to determine antibacterial activity of natural products. Brazilian Journal of Microbiology. 38:369-80; Balouiri M et al., (2016) Methods for in vitro evaluating antimicrobial activity: A review. Journal of Pharmaceutical Analysis. 6(2):71-9).

[2] = test system: Candida abicans; experiment: Agar diffusion growth inhibition zone, Candida abicans; assay type: cell-based, Candida albicans; settings: 6 mm = no activity
Protocol: (§1) Among the bacterial agents tested Gram positive and Gram negative bacterial groups represented by Staphylococcus aureus and Enterococcus species and pathogenic members of Enterobacteriaceae, Vibronaceae, Aeromonadaceae, Pseudomonadaceae were tested. Freshly sub-cultured bacterial strains were inoculated into peptone water and incubated for 4 hours at 37° C. and adjusted to a turbidity of 0.5 (Gram Negative Bacilli), 1 (Gram Positive Cocci) and 4 (Pus cells, GNB, & few Budding yeast cells) Mc Farland standards (10^8 CFU/ml) respectively.
(§2) The different bioactive compounds and their derivatives were dissolved and diluted with solvents (DMSO), number of subsequent dilutions was performed to obtain different concentrations of the bioactive compounds and their derivatives. (Working Concentrations).
(§3) Agar well diffusion method is widely used to evaluate the antimicrobial activity of plants or other synthetic products. The suspension (microbial inoculum) was used to inoculate into Muller Hinton Agar Petri plates by lawn culture. Well (diameter 6 mm) were punched in the agar by sterile borer and filled with 50 μl of dissolved extracts. Plates were incubated in incubator at 37° C. for 24 hours and measured the growth inhibition zone diameters in mm compared with that of control (DMSO) showing no growth.
(§4) The bioactive compounds were tested with desired concentrations in 6 mm filter paper discs (Whatman, no. 3) were impregnated with 10 μL of each of the different dilutions. The discs were allowed to remain at room temperature until complete diluent evaporation and kept under refrigeration until ready to be used. 10 μL of diluents used to products were used as control. Tests were performed by Agar disk-diffusion testing method, which is the official method used in many clinical microbiology laboratories for routine antimicrobial susceptibility testing.
(§5) Similar to the procedure used in Agar well diffusion method, the suspension (microbial inoculum) was used to inoculate into Muller Hinton Agar Petri plates by lawn culture. Then, filter paper discs (about 6 mm in diameter), containing the test compound at a desired concentration, were placed on the agar surface. The Petri dishes were incubated under suitable incubation conditions.
(§6) Bioactive compounds showing zone of inhibition beyond the size of 6 mm are considered to be having an anti-microbial activity.

[3] = test system: Proteus sp.; experiment: Agar diffusion growth inhibition zone, Proteus sp.; assay type: cell-based, Proteus species
Protocol: as §1, §2, §3, §4, §5, §6

[4] = test system: Aeromonas sp.; experiment: Agar diffusion growth inhibition zone, Aeromonas sp.; assay type: cell-based, Aeromonas species
Protocol: as §1, §2, §3, §4, §5, §6

[5] = test system: EAEC; experiment: Agar diffusion growth inhibition zone, EAEC; assay type: cell-based, Enteroaggregative E. coli
Protocol: as §1, §2, §3, §4, §5, §6

[6] = test system: Pseudomonas sp.; experiment: Agar diffusion growth inhibition zone, Pseudomonas sp.; assay type: cell-based, Pseudomonas species; settings: for zone of inhibition: Pseudomonas sp., 6 mm = no activity
Protocol: as §7, §8

[7] = test system: Klebsiella sp.; experiment: Agar diffusion growth inhibition zone, Klebsiella sp.; assay type: cell-based, Klebsiella species; settings: 6 mm = no activity
Protocol: as §1, §2, §3, §4, §5, §6

[8] = test system: Shigella sp.; experiment: Agar diffusion growth inhibition zone, Shigella sp.; assay type: cell-based, Shigella species; settings: for zone of inhibition: Shigella sp., 6 mm = no activity
Protocol: as §7, §8

[9] = test system: S. aureus; experiment: Agar diffusion growth inhibition zone, S. aureus; assay type: cell-based, Staphylococcus aureus
Protocol: as §1, §2, §3, §4, §5, §6

[10] = test system: Pleisiomonas sp.; experiment: Agar diffusion growth inhibition zone, Pleisiomonas sp.; assay type: cell-based, Pleisiomonas species; settings: for inhibition of growth: Plesiomonas species
Protocol: as §1, §2, §3, §4, §5, §6

[11] = test system: E. coli ATCC 25922; experiment: Agar diffusion growth inhibition zone, E. coli ATCC 25922; assay type: cell-based; settings: 6 mm = no activity
Protocol: as §1, §2, §3, §4, §5, §6

[12] = test system: Vibrio cholera; experiment: Agar diffusion growth inhibition zone, Vibrio cholera; assay type: cell-based, Vibrio cholerae; settings: for zone of inhibition: Vibrio cholera, 6 mm = no activity
Protocol: as §7, §8

[13] = test system: Citrobacter sp.; experiment: Agar diffusion growth inhibition zone, Citrobacter sp.; assay type: cell-based, Citrobacter species; settings: 6 mm = no activity
Protocol: as §1, §2, §3, §4, §5, §6

[14] = test system: Salmonella typhimurium; experiment: Agar diffusion growth inhibition zone, Salmonella typhimurium; assay type: cell-based; settings: 6 mm = no activity
Protocol: as §1, §2, §3, §4, §5, §6

[15] = test system: Enterococcus sp.; experiment: Agar diffusion growth inhibition zone, Enterococcus sp.; assay type: cell-based, Enterococcus species; settings: 6 mm = no activity
Protocol: as §1, §2, §3, §4, §5, §6

[16] = Proteus sp., 150 mg, 6 mm = no activity
[17] = Aeromonas sp., 100 mg, 6 mm = no activity
[18] = Aeromonas sp., 150 mg, 6 mm = no activity
[19] = Pleisiomonas sp., 100 mg, 6 mm = no activity
[20] = Pleisiomonas sp., 150 mg, 6 mm = no activity

With Demethoxycurcumin [compound 2] the “inhibition of growth” value [1] was “significantly inhibited the growth”, the zone of inhibition ([1]; 100 mg) was 12 mm and the zone of inhibition ([1]; 150 mg) was 12 mm. For the same compound, the zone of inhibition ([2]; 100 mg) was 6 mm, the zone of inhibition ([2]; 150 mg) was 6 mm and the zone of inhibition ([3]; Proteus sp., 100 mg, 6 mm = no activity) was 12 mm. For the same compound, the zone of inhibition [3, 16] was 12 mm, the zone of inhibition ([3]; Proteus species, at both concentrations of 100 mg and 150 mg) was 12 mm and the zone of inhibition [4, 17] was 9 mm. The zone of inhibition [4, 18] was 9 mm, the “inhibition of growth” value ([4]; Aeromonas species) was “inhibited the growth” and the zone of inhibition ([5]; 100 mg, 6 mm = no activity) was 6 mm. The zone of inhibition ([5]; 150 mg, 6 mm = no activity) was 6 mm, the zone of inhibition ([6]; 100 mg) was 6 mm and the zone of inhibition ([6]; 150 mg) was 6 mm. The zone of inhibition ([7]; 100 mg) was 6 mm, the zone of inhibition ([7]; 150 mg) was 6 mm and the zone of inhibition ([8]; 100 mg) was 6 mm. It also gave a zone of inhibition ([8]; 150 mg) of 6 mm, a zone of inhibition ([9]; 100 mg, 6 mm = no activity) of 11 mm and a zone of inhibition ([9]; 150 mg, 6 mm = no activity) of 11 mm. It also gave a zone of inhibition ([9]; concentration not given) of 11 mm, a zone of inhibition [10, 19] of 11 mm and a zone of inhibition [10, 20] of 11 mm. The “inhibition of growth” value [10] was “inhibited”, the zone of inhibition ([11]; 100 mg) was 6 mm and the zone of inhibition ([11]; 150 mg) was 6 mm. It also gave a zone of inhibition ([12]; 100 mg) of 6 mm, a zone of inhibition ([12]; 150 mg) of 6 mm and a zone of inhibition ([13]; 100 mg) of 6 mm. It also gave a zone of inhibition ([13]; 150 mg) of 6 mm, a zone of inhibition ([14]; 100 mg) of 6 mm and a zone of inhibition ([14]; 150 mg) of 6 mm. It also gave a zone of inhibition ([15]; 100 mg) of 6 mm and a zone of inhibition ([15]; 150 mg) of 6 mm.

For `CCOC(=O)Oc1ccc(/C=C/C(=O)COC(=O)/C=C/c2ccc(OC(=O)OCC)c(OC)c2)cc1OC` [compound 7, Diethylcalebin-A dicarbonate], the “inhibition of growth” value [1] was “significantly inhibited the growth”, the zone of inhibition at 100000 µg/disc ([1]; Escherichia coli) was 10 mm and the zone of inhibition at 150000 µg/disc ([1]; Escherichia coli) was 10 mm. The zone of inhibition at 100 mg/mL ([2]; 100 mg) was 6 mm, the zone of inhibition at 150 mg/mL ([2]; 150 mg) was 6 mm and the zone of inhibition at 150 mg/mL [3, 16] was 6 mm. The zone of inhibition at 100 mg/mL [4, 17] was 6 mm, the zone of inhibition at 150 mg/mL [4, 18] was 6 mm and the “inhibition of growth” value [5] was “inhibited”. It also gave a zone of inhibition at 100 mg/mL ([5]; Escherichia coli, 100 mg, 6 mm = no activity) of 9 mm, a zone of inhibition at 150 mg/mL ([5]; Escherichia coli, 150 mg, 6 mm = no activity) of 9 mm and a zone of inhibition at 100000 µg/disc ([6]; Pseudomonas) of 6 mm. It also gave a zone of inhibition at 150000 µg/disc ([6]; Pseudomonas) of 6 mm, a zone of inhibition at 100 mg/mL ([7]; 100 mg) of 6 mm and a zone of inhibition at 150 mg/mL ([7]; 150 mg) of 6 mm. For the same compound, the zone of inhibition at 100000 µg/disc ([8]; Shigella) was 6 mm, the zone of inhibition at 150000 µg/disc ([8]; Shigella) was 6 mm and the zone of inhibition at 100 mg/mL ([9]; Staphylococcus aureus, 100 mg, 6 mm = no activity) was 6 mm. It also gave a zone of inhibition at 150 mg/mL ([9]; Staphylococcus aureus, 150 mg, 6 mm = no activity) of 6 mm, a zone of inhibition at 100 mg/mL [10, 19] of 10 mm and a zone of inhibition at 150 mg/mL [10, 20] of 10 mm. For the same compound, the “inhibition of growth” value [10] was “inhibited”, the zone of inhibition at 100 mg/mL ([11]; Escherichia coli, ATCC25922, 100 mg) was 6 mm and the zone of inhibition at 150 mg/mL ([11]; Escherichia coli, ATCC25922, 150 mg) was 6 mm. For the same compound, the zone of inhibition at 100000 µg/disc ([12]; Vibrio cholerae) was 6 mm, the zone of inhibition at 150000 µg/disc ([12]; Vibrio cholerae) was 6 mm and the zone of inhibition at 100 mg/mL ([13]; 100 mg) was 6 mm. It also gave a zone of inhibition at 150 mg/mL ([13]; 150 mg) of 6 mm, a zone of inhibition at 100 mg/mL ([14]; Salmonella enterica, 100 mg) of 6 mm and a zone of inhibition at 150 mg/mL ([14]; Salmonella enterica, 150 mg) of 6 mm. For the same compound, the zone of inhibition at 100 mg/mL ([15]; 100 mg) was 6 mm and the zone of inhibition at 150 mg/mL ([15]; 150 mg) was 6 mm.
